Measured values as given in the CheMixHub drug solubility set.

Assay: xn = mol fraction of the nth substance listed, in the solute-free solvent

CC(N)C(=O)O (stereo unspecified) + O + CC(C)O
solubility (g/100 g solution)
Settings	x2 = 0.1	x2 = 0.2	x2 = 0.3	x2 = 0.4	x2 = 0.5	x2 = 0.6	x2 = 0.7	x2 = 0.8	x2 = 0.9
283.15 K	0.0186	0.0381	0.0478	0.104	0.185	0.376	0.772	1.58	3.5
293.15 K	0.0303	0.046	0.0604	0.124	0.223	0.459	1.01	2.08	4.48
303.15 K	0.0379	0.0557	0.0726	0.143	0.267	0.552	1.25	2.62	5.51
313.15 K	0.0427	0.0643	0.0784	0.158	0.316	0.704	1.55	3.3	6.91
323.15 K	0.0448	0.0801	0.113	0.167	0.372	0.842	1.85	4.04	8.23

COc1cc2c(cc1OC)-c1cc3ccc(OC)c(OC)c3c[n+]1CC2.[Cl-] + O + CC(C)O
solubility (g/100 g solution)
Settings	283.15 K	288.15 K	293.15 K	298.15 K	303.15 K	308.15 K	313.15 K	318.15 K	323.15 K	328.15 K
x2 = 0.2703	0.15	0.185	0.238	0.315	0.402	0.504	0.629	0.775	0.949	1.16
x2 = 0.4546	0.201	0.247	0.317	0.417	0.531	0.663	0.824	1.01	1.24	1.51
x2 = 0.5883	0.269	0.33	0.423	0.553	0.7	0.872	1.08	1.32	1.6	1.95
x2 = 0.6897	0.356	0.437	0.559	0.725	0.933	1.19	1.46	1.76	2.11	2.49
x2 = 0.7693	0.463	0.593	0.762	0.958	1.25	1.49	1.82	2.18	2.62	3.11
x2 = 0.8334	0.587	0.719	0.914	1.17	1.46	1.8	2.19	2.65	3.18	3.81
x2 = 0.8861	0.724	0.887	1.12	1.43	1.85	2.25	2.72	3.24	3.85	4.53
x2 = 0.9303	0.871	1.07	1.35	1.7	2.17	2.67	3.23	3.87	4.64	5.28
x2 = 0.9678	1.03	1.26	1.59	1.99	2.5	3.05	3.69	4.4	5.23	6.04

Cc1ncc(C[n+]2csc(CCO)c2C)c(N)n1.O=[N+]([O-])[O-] + O + CC(C)O
solubility (g/100 g solution)
Settings	278.15 K	283.15 K	288.15 K	293.15 K	298.15 K	303.15 K	308.15 K	313.15 K
x2 = 0.3	0.0345	0.0413	0.051	0.06	0.0744	0.093	0.115	0.151
x2 = 0.4	0.0937	0.119	0.15	0.172	0.199	0.243	0.297	0.385
x2 = 0.5	0.228	0.257	0.305	0.372	0.453	0.573	0.715	0.897
x2 = 0.6	0.364	0.439	0.552	0.705	0.814	1.01	1.28	1.57
x2 = 0.7	0.637	0.765	0.916	1.12	1.38	1.71	2.11	2.61
x2 = 0.8	0.968	1.15	1.39	1.74	2.15	2.63	3.14	3.84
x2 = 0.9	1.18	1.47	1.83	2.33	2.85	3.48	4.26	5.2
